Laboratory results taken from PMC10247784, “Physiological activation of human and mouse bitter taste receptors by bile acids” (Communications Biology, 2023).

Target: T1, mouse Tas2r126 (Mus musculus, UniProt P59532)
T1 construct: expressed in transfected cells; host or cells: HEK293T-Gα16gust44
T1 sequence (P59532 1-308): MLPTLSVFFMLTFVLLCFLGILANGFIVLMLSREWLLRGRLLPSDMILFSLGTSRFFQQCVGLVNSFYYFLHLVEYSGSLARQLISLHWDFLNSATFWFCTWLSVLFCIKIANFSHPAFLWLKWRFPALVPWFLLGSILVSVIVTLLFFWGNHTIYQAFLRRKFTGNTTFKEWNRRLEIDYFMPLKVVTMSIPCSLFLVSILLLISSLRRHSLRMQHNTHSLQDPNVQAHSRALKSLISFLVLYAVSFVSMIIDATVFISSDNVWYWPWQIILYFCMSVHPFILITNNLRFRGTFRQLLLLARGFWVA
Test: Calcium imaging assay (FLIPR), HEK293T-Gα16gust44 cells transfected with mouse Tas2r126
Format: cell-based
Protocol: This set of bile acids was chosen because of their commercial availability in high purities, their diversity within the class of bile acids and their previous detection and quantitation in human blood. Stock solutions were prepared in DMSO.
As basal growth medium for the HEK293T-Gα16gust44 cell line[17],[59] served Dulbecco’s modified eagle medium (DMEM) (Thermo Fisher Scientific, Darmstadt, Germany) supplemented with 10 % fetal bovine serum (Sigma-Aldrich, Steinheim, Germany), 2 mM L-glutamine (Sigma-Aldrich, Steinheim, Germany), 100 units/ml penicillin (Sigma Aldrich, Steinheim, Germany) and 100 µg/ml streptomycin (Sigma Aldrich, Steinheim, Germany). Growth conditions were 37 °C, 5 % CO2 and saturated air-humidity[60].
HEK293T-Gα16gust44 cells were seeded on poly-D-lysine (10 µg/ml) coated 96-well plates to reach a confluence of 40-60 % the next day. For transient transfection 150 ng of plasmid DNA containing the receptor of interest and 0.3 µl lipofectamine 2000 (Thermo Fisher Scientific, Darmstadt, Germany) per well were used and transfection took place according to the manual of lipofectamine 2000. […] The empty vector DNA (mock) was transfected as negative control[14],[41].
Cells were loaded using the calcium-sensitive fluorescent dye Fluo-4-AM (Abcam, Cambridge, Great Britain) in the presence of 2.5 mM probenecid (Sigma-Aldrich, Steinheim, Germany) the day after transfection[13],[41]. 1 h after loading, cells were washed with C1 buffer using a BioTek Cell Washer, incubated in the dark for half an hour and washed again. For automated agonist application and measurement of fluorescence changes, a FLIPR^TETRA device (Molecular Devices, San José, United States) was used. Viability of cells was tested by application of 100 nM Somatostatin 14 (Bachem, Bubendorf, Switzerland)[42].
Measured data were negative control corrected by subtracting the signal of the mock-transfected cells and exported to Microsoft Excel using the FLIPR software ScreenWorks 4.2. In Microsoft Excel software, standardization of maximum fluorescence intensities to the basal fluorescence and normalization to the buffer-only control was done to calculate the relative fluorescence changes (ΔF/F).
Initial screening experiments performed in duplicate wells were confirmed by at least one replication and representative traces were selected for display. All dose-response relationships were determined by three independent experiments (biological replicates) performed in duplicates (technical replicates). Threshold concentrations, defined as lowest substance concentrations leading to statistically significant elevated fluorescence changes in receptor-transfected cells compared with empty vector-transfected cells, were determined using SigmaPlot with Student’s t-test to evaluate statistical significance (p < 0.01).

C[C@H](CCC(=O)O)[C@H]1CC[C@H]2[C@@H]3[C@H](O)C[C@@H]4C[C@H](O)CC[C@]4(C)[C@H]3C[C@H](O)[C@]12C [Cholic Acid, cholic acid]
RLU (Time 0 s): 0 RLU
RLU (Time 2 s): 6.32 RLU
RLU (Time 4 s): -17.4742 RLU
RLU (Time 6 s): 5.446 RLU
RLU (Time 8 s): 10.1237 RLU
RLU (Time 12 s): 18.7423 RLU
RLU (Time 14 s): -3.953 RLU
RLU (Time 16 s): -7.647 RLU
RLU (Time 18 s): 11.4341 RLU
RLU (Time 18.781 s): -6.409 RLU
RLU (Time 20.781 s): -22.1196 RLU
RLU (Time 22.781 s): 57.6732 RLU
RLU (Time 24.781 s): 119.461 RLU
RLU (Time 26.781 s): 150.574 RLU
RLU (Time 28.781 s): 265.727 RLU
RLU (Time 30.781 s): 370.327 RLU
RLU (Time 32.781 s): 482.177 RLU
RLU (Time 34.781 s): 570.785 RLU
RLU (Time 36.781 s): 665.431 RLU
RLU (Time 38.781 s): 689.631 RLU
RLU (Time 40.781 s): 736.63 RLU
RLU (Time 42.781 s): 773.753 RLU
RLU (Time 44.781 s): 819.752 RLU
RLU (Time 46.781 s): 829.41 RLU
RLU (Time 48.781 s): 884.282 RLU
RLU (Time 50.781 s): 903.917 RLU
RLU (Time 52.781 s): 907.88 RLU
RLU (Time 54.781 s): 897.488 RLU
RLU (Time 56.781 s): 894.491 RLU
RLU (Time 58.781 s): 914.837 RLU
RLU (Time 60.781 s): 925.711 RLU
RLU (Time 62.781 s): 919.134 RLU
RLU (Time 64.781 s): 943.476 RLU
RLU (Time 66.781 s): 923.886 RLU
RLU (Time 68.781 s): 937.947 RLU
RLU (Time 70.781 s): 951.397 RLU
RLU (Time 72.781 s): 951.831 RLU
RLU (Time 74.781 s): 959.178 RLU
RLU (Time 76.781 s): 961.002 RLU
RLU (Time 78.781 s): 948.826 RLU
RLU (Time 80.781 s): 939.325 RLU
RLU (Time 82.781 s): 951.223 RLU
RLU (Time 84.781 s): 936.985 RLU
RLU (Time 86.781 s): 922.709 RLU
RLU (Time 88.781 s): 911.664 RLU
RLU (Time 90.781 s): 942.653 RLU
RLU (Time 92.781 s): 908.427 RLU
RLU (Time 94.781 s): 912.682 RLU
RLU (Time 96.781 s): 907.486 RLU
RLU (Time 98.781 s): 899.352 RLU
RLU (Time 100.781 s): 901.766 RLU
RLU (Time 102.781 s): 898.622 RLU
RLU (Time 104.781 s): 885.627 RLU
RLU (Time 106.781 s): 885.616 RLU
RLU (Time 108.781 s): 859.767 RLU
RLU (Time 110.781 s): 849.777 RLU
RLU (Time 112.781 s): 824.416 RLU
RLU (Time 114.781 s): 805.273 RLU
RLU (Time 116.781 s): 784.094 RLU
RLU (Time 118.781 s): 781.757 RLU
RLU (Time 120.781 s): 784.883 RLU
RLU (Time 122.781 s): 777.647 RLU
RLU (Time 124.781 s): 774.835 RLU
RLU (Time 126.781 s): 752.144 RLU
RLU (Time 128.781 s): 755.376 RLU
RLU (Time 130.781 s): 741.203 RLU
RLU (Time 132.781 s): 735.986 RLU
RLU (Time 134.781 s): 705.295 RLU
RLU (Time 136.781 s): 715.373 RLU
RLU (Time 137.563 s): 694.021 RLU
RLU (Time 143.563 s): 674.141 RLU
RLU (Time 149.563 s): 648.129 RLU
RLU (Time 155.563 s): 630.623 RLU
RLU (Time 161.563 s): 621.371 RLU
RLU (Time 167.563 s): 569.451 RLU
RLU (Time 173.563 s): 563.656 RLU
RLU (Time 179.563 s): 519.424 RLU
RLU (Time 185.563 s): 518.545 RLU
RLU (Time 191.563 s): 496.035 RLU
RLU (Time 197.563 s): 519.073 RLU
RLU (Time 203.563 s): 511.704 RLU
RLU (Time 209.563 s): 507.09 RLU
RLU (Time 215.563 s): 499.344 RLU
RLU (Time 221.563 s): 510.025 RLU
RLU (Time 227.563 s): 524.879 RLU
RLU (Time 233.563 s): 522.75 RLU
RLU (Time 239.563 s): 547.672 RLU
RLU (Time 245.563 s): 498.436 RLU
RLU (Time 293.563 s): 489.083 RLU
RLU (Time 299.563 s): 473.554 RLU
RLU (Time 305.563 s): 449.101 RLU
RLU (Time 311.563 s): 467.667 RLU
RLU (Time 317.563 s): 473.372 RLU
RLU (Time 323.563 s): 461.769 RLU
RLU (Time 329.563 s): 454.066 RLU
RLU (Time 335.563 s): 446.164 RLU
RLU (Time 341.563 s): 461.362 RLU
RLU (Time 347.563 s): 456.539 RLU
RLU (Time 353.563 s): 466.548 RLU
RLU (Time 359.563 s): 455.13 RLU
Activation threshold concentration Tas2r126 (p < 0.01 vs empty vector): 100 µM
